Results on one compound are retold here after patent US20260224675A1, “METHOD OF INHIBITING DEGRADING PROTEASE ACTIVITY IN THE SKIN” (The Regents of the University of California, priority 2023, published 2026).

The structures appear in SMILES notation.

Holding throughout (format): in vivo
Test [1] has as its system mucin coat in the small intestine. The test is described as follows: Mucin coat in rat small intestine, alcian blue labeling. The note with it: old rats (104 weeks), oral in drinking water, two weeks, vs old non-treated. The source says:
(§1) Male Wistar rats (Harlan Sprague Dawley Inc., Indianapolis, IN) at maturity (4 months, 300 to 350 gm) and old age (24 months, 375 to 450 gm) were included in the study. The animals were maintained on standard laboratory chow (8604 Teklad rodent diet; Harlan Laboratories, Indianapolis, IN) without restriction and water ad libitum and maintained in separated room without pathogen-free conditions. […] A subgroup of old animals was given over two weeks a pancreatic serine protease (trypsin) inhibitor (tranexamic acid, 14 days) in drinking water (137 mM, exchanged daily) which at a minimum fluid consumption of 40 ml/day amounts to a minimum dose of 0.39 gm/kg/day for 350 gm body weight. […]
(§2) Images of the immunolabel density were recorded from low power overviews of the tissue (10× objective, numerical aperture 0.25) under standard light conditions. Images were digitally analyzed to minimize operator error (NIH Image, 1.61, public domain software, spatial resolution of 640×480 pixel).
The intensity of the immune substrate label was measured after color extraction in form of light intensity (1 corresponding to white, 256 corresponding to black). The mean label density per group (with 3 animals per group) was determined from the average label density per animal (determined from 5 tissue sections/animal, 30 images/section).

Test [2] deals with pancreatic trypsin. The test is described as follows: Pancreatic trypsin accumulation in rat small intestine, immunohistochemistry. The conditions noted are these: old rats, oral, two weeks; increase in old vs young rats. The source says: (§3) Male Wistar rats (Harlan Sprague Dawley Inc., Indianapolis, IN) at maturity (4 months, 300 to 350 gm) and old age (24 months, 375 to 450 gm) were included in the study. The animals were maintained on standard laboratory chow (8604 Teklad rodent diet; Harlan Laboratories, Indianapolis, IN) without restriction and water ad libitum and maintained in separated room without pathogen-free conditions. […] A subgroup of old animals was given over two weeks a pancreatic serine protease (trypsin) inhibitor (tranexamic acid, 14 days) in drinking water (137 mM, exchanged daily) which at a minimum fluid consumption of 40 ml/day amounts to a minimum dose of 0.39 gm/kg/day for 350 gm body weight.
(§4) Small intestine: Full thickness tissue blocks of the wall of proximal jejunum (3 by 5 mm) were fixed from all sides in 10% formaldehyde. Pancreatic trypsin and amylase were detected with primary (MoAb (D-1) and MoAb (G-10), respectively), and secondary antibodies labeled with DAB (Peroxidase Substrate Kit, ab64238, ABCAM).
(§5) Images of the immunolabel density were recorded from low power overviews of the tissue (10× objective, numerical aperture 0.25) under standard light conditions. Images were digitally analyzed to minimize operator error (NIH Image, 1.61, public domain software, spatial resolution of 640×480 pixel). […]

For another test, the system named is amylase. The test is described as follows: Pancreatic amylase accumulation in rat small intestine, immunohistochemistry. The conditions noted are these: old rats, oral, two weeks; increase in old vs young rats.
Text: as §3, §4, §5

For test [3], the system named is pancreatic trypsin. In words: Pancreatic trypsin accumulation in rat skin tissue, immunohistochemistry. The conditions noted are these: old rats, two weeks.
Text: as §1
To determine on the tissue sections the immunolabel density and distribution of pancreatic serine proteases, pancreatic trypsin MoAb (D-1): sc-137077(Santa Cruz) primary antibody was used, followed by secondary antibodies (MP-7601 for anti-rabbit IgG; MP-7602 for anti-mouse IgG; ImmPRESS Excel staining kit peroxidase). […] No counterstain was applied to facilitate quantitative label intensity measurements and since cellular and vascular structures are readily identified. […] All procedures were carried out under standardized conditions to permit quantitative comparison of label densities. […]

For a further test, the system named is collagen. The test is described as follows: Rat skin tissue collagen fragmentation, collagen hybridizing peptide (B-CHP) labeling. The note with it: old rats, two weeks.
Text: as §1
Tissue sections were stained with B-CHP (stock solution, 150 mM; final applied solution 7.5. mM). […] The B-CHP label intensity on the sections was recorded by digital microscopy.
as §2
The intensity of the immune substrate label was measured after color extraction in form of light intensity (1 corresponding to white, 256 corresponding to black). […]

With `NC[C@H]1CC[C@H](C(=O)O)CC1` [tranexamic acid], the “mucin coat in the small intestine (alcian blue label)” value in test [1] is “restoration of the mucin coat”. The “pancreatic trypsin label density in the small intestine” value with pancreatic trypsin [2] is “attenuated”. Also, in the test with amylase, the “amylase label density in the small intestine” value was “attenuated”. Also, the “pancreatic trypsin accumulation in skin tissue” value with pancreatic trypsin [3] is given as “prevents trypsin accumulation”. Further, the “collagen fragmentation in skin tissue (CHP)” value with collagen is given as “prevents collagen fragmentation”.
